# Laboratory results as given in patent publication US20250313563A1, “GLYCOGEN SYNTHASE KINASE 3 INHIBITORS AND USES THEREOF” (The Broad Institute, Inc., priority 2022, published 2025).
# Where two headings read alike, the source gives them in different places.
# What was measured:
# [1] = biological target: GSK3b (GST-full length GSK3b) (Homo sapiens (Human), UniProt P49841); test: GSK3b TR-FRET kinase assay; type: biochemical; settings: IC50
# Outline: (§1)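 IC50s came from the normalized 665/615 TR-FRET ratio after Tb-anti-pSer641 antibody and streptavidin-d2 detection of phosphorylated biotin-glycogen synthase peptide (200 nM). ATP was 4 μM for GSK3α, 2 μM for GSK3b, or 1 mM; 1 nM enzyme, 100 min, ambient, pH 7.5, after 30-min compound preincubation.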
# [2] = biological target: GSK3α (GST-full length GSK3α) (Homo sapiens (Human), UniProt P49840); test: GSK3α TR-FRET kinase assay; type: biochemical; settings: IC50
# Outline: as §1
# [3] = 1 nM GSK3b, 2 μM ATP, 30 minute preincubation, Table 16, read-out: GSK3-B TR-FRET BIOCHEMICAL (TR-FRET)
# [4] = 1 nM GSK3α, 4 μM ATP, 30 minute preincubation, Table 16, read-out: GSK3-A TR-FRET BIOCHEMICAL (TR-FRET)
# [5] = read-out: GSK3-B (TR-FRET 1 mM ATP), GMean, 1 mM ATP, geometric mean
# [6] = read-out: GSK3-A (TR-FRET 1 mM ATP), GMean, 1 mM ATP, geometric mean
# Chain of GSK3α (GST-full length GSK3α) (P49840 whole entry): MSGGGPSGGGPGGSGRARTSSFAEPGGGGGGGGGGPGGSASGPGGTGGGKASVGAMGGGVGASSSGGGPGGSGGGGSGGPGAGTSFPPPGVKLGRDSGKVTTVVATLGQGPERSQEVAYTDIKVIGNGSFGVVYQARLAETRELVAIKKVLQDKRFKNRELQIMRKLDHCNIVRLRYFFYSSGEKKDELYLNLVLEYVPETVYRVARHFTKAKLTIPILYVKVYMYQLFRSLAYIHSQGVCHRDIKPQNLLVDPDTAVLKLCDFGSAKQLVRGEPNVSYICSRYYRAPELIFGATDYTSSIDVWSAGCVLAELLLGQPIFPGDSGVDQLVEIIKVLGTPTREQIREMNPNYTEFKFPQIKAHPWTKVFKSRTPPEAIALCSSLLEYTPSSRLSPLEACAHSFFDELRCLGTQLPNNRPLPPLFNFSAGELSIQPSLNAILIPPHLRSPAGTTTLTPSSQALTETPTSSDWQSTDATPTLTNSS
# Chain of GSK3b (GST-full length GSK3b) (P49841 whole entry): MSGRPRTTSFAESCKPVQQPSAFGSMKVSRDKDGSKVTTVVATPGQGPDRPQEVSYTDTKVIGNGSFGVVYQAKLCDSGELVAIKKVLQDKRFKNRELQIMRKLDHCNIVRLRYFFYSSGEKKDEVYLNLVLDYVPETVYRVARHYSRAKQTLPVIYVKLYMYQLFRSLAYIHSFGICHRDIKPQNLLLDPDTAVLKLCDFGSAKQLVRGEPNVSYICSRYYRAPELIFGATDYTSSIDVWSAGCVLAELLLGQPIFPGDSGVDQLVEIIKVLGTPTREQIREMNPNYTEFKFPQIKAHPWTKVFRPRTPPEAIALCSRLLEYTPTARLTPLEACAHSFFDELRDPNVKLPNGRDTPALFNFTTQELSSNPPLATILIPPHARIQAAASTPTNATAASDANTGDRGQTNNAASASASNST
Structure (SMILES),"IC50 [1, 3] [nM]","IC50 [2, 4] [nM]","IC50 [1, 5] [nM]","IC50 [2, 6] [nM]"
CCC1(c2cccc(-c3ccnc(C(F)(F)F)c3)c2)C2=C(CC(C)(C)CC2=O)Nc2n[nH]c(C)c21 (stereo not drawn) [Compound 913020],≤ 100,≤ 100,,
CC[C@@]1(c2cccc(-c3ccnc(N(C)C)c3)c2)C2=C(CC(C)(C)CC2=O)Nc2n[nH]c(C)c21 [Compound 913021],≤ 100,≤ 100,,
CCC1(c2cccc(-c3ccncc3C)c2)C2=C(CC(C)(C)CC2=O)Nc2n[nH]c(C)c21 (stereo not drawn) [Compound 913022],1000 to 5000,100 to 1000,,
CCC1(c2cccc(-c3ccnn3C)c2)C2=C(CC(C)(C)CC2=O)Nc2n[nH]c(C)c21 (stereo not drawn) [Compound 913023],,,100 to 1000,≤ 100
CCC1(c2cccc(-c3cn[nH]c3)c2)C2=C(CC(C)(C)CC2=O)Nc2n[nH]c(C)c21 (stereo not drawn) [Compound 913025],≤ 100,≤ 100,100 to 1000,≤ 100
CCC1(c2cccc(-c3c(C)nn(C)c3C)c2)C2=C(CC(C)(C)CC2=O)Nc2n[nH]c(C)c21 (stereo not drawn) [Compound 913026],100 to 1000,100 to 1000,,
CCC1(c2cccc(-c3cnn(C4CC4)c3)c2)C2=C(CC(C)(C)CC2=O)Nc2n[nH]cc21 (stereo not drawn) [Compound 913028],≤ 100,≤ 100,,
CC[C@@]1(c2cccc(-c3cn(C)nc3C(C)C)c2)C2=C(CC(C)(C)CC2=O)Nc2n[nH]c(C)c21 [Compound 913029],≤ 100,≤ 100,,
CCC1(c2cccc(-c3cnn(C)c3)c2)C2=C(CC(C)(C)CC2=O)Nc2n[nH]c(C)c21 (stereo not drawn) [Compound 913031],≤ 100,≤ 100,,
CC[C@@]1(c2cccc(-c3cncn3C)c2)C2=C(CC(C)(C)CC2=O)Nc2n[nH]c(C)c21 [Compound 913032],≤ 100,≤ 100,≤ 100,≤ 100
CCC1(c2cccc(-c3cnn4c3CCCC4)c2)C2=C(CC(C)(C)CC2=O)Nc2n[nH]c(C)c21 (stereo not drawn) [Compound 913033],1000 to 5000,100 to 1000,,
CCC1(c2cccc(-c3cn(C)nc3C)c2)C2=C(CC(C)(C)CC2=O)Nc2n[nH]c(C)c21 (stereo not drawn) [Compound 913034],> 5000,1000 to 5000,,
CC[C@]1(c2cccc(-c3cn(C)nc3C)c2)C2=C(CC(C)(C)CC2=O)Nc2n[nH]c(C)c21 [Compound 913035],≤ 100,≤ 100,100 to 1000,≤ 100
CCC1(c2cccc(-c3cnn4c3CCCC4)c2)C2=C(CC(C)(C)CC2=O)Nc2n[nH]c(C)c21 (stereo not drawn) [Compound 913036],≤ 100,≤ 100,100 to 1000,≤ 100
CC[C@]1(c2cccc(-c3cncn3C)c2)C2=C(CC(C)(C)CC2=O)Nc2n[nH]c(C)c21 [Compound 913037],100 to 1000,≤ 100,,
CCC1(c2cccc(-c3cnn(C)c3)c2)C2=C(CC(C)(C)CC2=O)Nc2n[nH]c(C)c21 (stereo not drawn) [Compound 913038],1000 to 5000,100 to 1000,,
CCC1(c2cccc(-c3ccn(C)n3)c2)C2=C(CC(C)(C)CC2=O)Nc2n[nH]c(C)c21 (stereo not drawn) [Compound 913039],> 5000,1000 to 5000,,
CC[C@]1(c2cccc(-c3cn(C)nc3C(C)C)c2)C2=C(CC(C)(C)CC2=O)Nc2n[nH]c(C)c21 [Compound 913040],1000 to 5000,100 to 1000,,
CC[C@]1(c2cccc(-c3cnn(CCOC)c3)c2)C2=C(CC(C)(C)CC2=O)Nc2n[nH]c(C)c21 [Compound 913042],> 5000,> 5000,,
CC[C@]1(c2cccc(-c3c(C)nn(C)c3C)c2)C2=C(CC(C)(C)CC2=O)Nc2n[nH]c(C)c21 [Compound 913043],≤ 100,≤ 100,100 to 1000,≤ 100
CCC1(c2cccc(-c3cn[nH]c3)c2)C2=C(CC(C)(C)CC2=O)Nc2n[nH]c(C)c21 (stereo not drawn) [Compound 913044],100 to 1000,100 to 1000,,
CCC1(c2cccc(-c3cnn(C)c3C)c2)C2=C(CC(C)(C)CC2=O)Nc2n[nH]c(C)c21 (stereo not drawn) [Compound 913045],,,100 to 1000,≤ 100
